For one data set the following is noted: acidic group.
As usually defined, the pKa is the negative logarithm of the acid dissociation constant. Low values mean a stronger acid or weaker base, high ones a weaker acid or stronger base. For `Cc1c[n+]([C@@H]2C[C@@H](O)[C@H](CO)O2)c(O)nc1NCCc1ccccc1`, the pKa worked out at 3.83.

Take `CC(=O)Nc1ccc(S)cc1`: the pKa came to 6.08.

Consider `O=C(O)c1cc2cc(Cn3cc[nH+]c3)ccc2o1`, for which the pKa is 2.38.

Regarding `CCC(CC)C1(CC)C(=O)[N-]C(=S)NC1=O`, the pKa was 12.4.

For the compound `[O-][n+]1c2ccccc2[n+](O)c2ccccc21`, the pKa was -1.62.

For the compound `CCN(CC)C(=S)NC(=O)c1cccc(C)c1`, the pKa was 8.36.

For the compound `Oc1ccc2ncccc2c1`, the pKa came out at 8.82.

With `CC(C)(C)CCCC(=O)O`, the pKa came out at 4.88.

`Nc1ncnc2[nH]cnc12` yielded a pKa of 9.86.

In turn, `Cn1cnc2[nH]c(=O)[nH]c(=S)c21` returned a pKa of 6.8.

Consider `C/C(=N/O)c1ccc([O-])cc1O`, for which the pKa worked out at 9.72.

Regarding `O=C1CCc2cc(Cl)c([N+](=O)[O-])cc2C1`, the pKa was determined as 11.3.

For the compound `CC(=O)/C(CN1CCOCC1)=N\O`, the pKa was found to be 9.15.

Turning to `O=C(O)C=C=Cc1ccccc1`, the pKa is 3.7.

Compound `CCCC[NH2+]CC(=O)O` showed a pKa of 2.32.

`Cn1c(=O)[nH]c2ncn(C)c2c1=O` gave a pKa of 8.65.

As for `O/N=C/C(Cl)=N\O`, the pKa was 8.24.

In turn, `O=[N+]([O-])c1cccc([Se](=O)O)c1` had a pKa of 4.07.

`O=C1C=Cc2ccccc2/C1=N\O` came in with a pKa of 7.77.

In turn, `CCP(=O)(CC)CC(C)=O` returned a pKa of 11.9.

`Cc1cccc(NS(=O)(=O)c2ccc(N)cc2)[n+]1[O-]`: the pKa is 5.9.

The compound `CC(C)=CC[C@@H]1C(=O)C(C(=O)CC(C)C)=C(O)[C@H]1O` came in with a pKa of 2.35.

In the case of `CO/C(C)=C\C(=O)O`, the pKa worked out at 5.81.

With `COc1c(C(=O)O)oc2ccccc12`, the pKa is 3.7.

`C[NH+](C)CCc1c[nH]c2ccc(O)cc12` gave a pKa of 9.73.

For `CC(S)C(=O)O` (centres undefined), the pKa was determined as 3.35.

Regarding `C[NH+](C)CCCCCNC(=O)/C=N/O`, the pKa amounted to 8.88.

In turn, `CC1CCCC(C)C1C(=O)O` (centres undefined) displayed a pKa of 4.88.

Consider `CC1C(=O)c2ccccc2C1=O`, for which the pKa turned out to be 6.17.

On to `COc1ccc(C(=O)c2cc[nH]n2)cc1`, for which the pKa stood at 12.1.

In the case of `Nc1ccc(O)c([N+](=O)[O-])c1`, the pKa was 7.81.

In turn, `Cc1cc(C)c(O)cc1C` had a pKa of 10.6.

`CCc1cc(Cl)c(O)c(C(=O)NC[C@H]2CCC[NH+]2CC)c1OC` came in with a pKa of 6.91.

As for `O=C(O)[C@@H]1CCCN1C(=O)[C@@H]1CCC[NH2+]1`, the pKa was found to be 3.16.

In the case of `Nc1nc[nH]n1`, the pKa stood at 10.7.

`NC(=O)CC(=O)c1ccncc1` yielded a pKa of 7.91.

`O=C([O-])[C@@H]1CC[C@H](C(=O)O)C1` displayed a pKa of 5.52.

For the compound `Cc1cc(Cc2cc([N+](=O)[O-])ccc2[O-])cc(C)c1O`, the pKa amounted to 10.9.

The compound `COc1cc2c(O)cc(C)[nH+]c2c2c(C)c(C)oc12` displayed a pKa of 2.91.

`Cc1ccc(S(=O)(=O)NC(=O)OCc2ccccc2)cc1` yielded a pKa of 4.21.

Regarding `O=C(O)C1CCCc2ccccc2O1` (centres undefined), the pKa stood at 3.63.

`O=C(O)c1cccc(Br)c1`: the pKa was 3.79.

In turn, `Oc1onc2c1CC[NH+](Cc1ccccc1)CC2` gave a pKa of 3.3.

`C[C@H]([NH3+])C(=O)O` displayed a pKa of 2.42.

As for `C/C(O)=C/C(N)=O`, the pKa turned out to be 9.46.

The compound `CC(C)O` gave a pKa of 16.1.

`O=C(O)c1cccs1` displayed a pKa of 3.46.

Take `N/N=C(\N)c1ncnc2nc[nH]c12`: the pKa was 10.

`[S-]c1nc(S)c2[nH]cnc2n1` had a pKa of 9.97.

On to `Cc1cc(C)c(C(=O)C(=O)O)c(C)c1`, for which the pKa came to 1.34.

On to `C=CCOc1ccc(C(=O)O)cc1`, for which the pKa was 4.45.

With `S=c1[nH]c(SCc2ccccc2)c(-c2ccccc2)[nH]1`, the pKa came out at 9.55.

Regarding `O=P1(O)CCCCC1`, the pKa is 2.73.

In turn, `Cn1cnc2[nH]c(=O)[nH]c(=O)c21` had a pKa of 8.45.

In turn, `Cc1cccc(O)c1C(=O)O` returned a pKa of 3.35.

The compound `CCOC(=O)COc1ccc(S(=O)(=O)c2ccc(O)c(C[NH3+])c2)c(Cl)c1Cl` returned a pKa of 6.67.

Consider `NS(=O)(=O)c1ccc(/N=C/c2ccccc2O)cc1`, for which the pKa was 6.63.

`Cc1nn(-c2ccccc2)c(O)c1-c1ccccc1` gave a pKa of 11.9.

`COc1ccccc1O` yielded a pKa of 9.7.

For the compound `O=C([O-])c1cc(O)c(O)c(C(=O)[O-])[o+]1`, the pKa amounted to 9.82.

In turn, `[O-][n+]1ccc(NO)c2ccccc21` yielded a pKa of 9.52.

Consider `CN(C)C(=O)OCC(=O)O`, for which the pKa was found to be 3.01.

Compound `CCOC(=O)C[N+](=O)[O-]` came in with a pKa of 5.82.

Compound `O[n+]1c2ccccc2cc2ccccc21` displayed a pKa of 1.37.

The compound `O=C(O)CCc1ccc(Cl)cc1` registered a pKa of 4.65.

In turn, `O=P([O-])(O)C([NH2+]Cc1ccccn1)c1ccccc1O` (centres undefined) registered a pKa of 5.15.

On to `CC[C@H](C)[C@H]([NH3+])C(=O)O`, for which the pKa is 2.31.

`Oc1[nH]c2ccccc2[nH+]1` showed a pKa of -1.7.

Still in this data set, the particulars now being: basic group.
On to `C#CCNN`, for which the pKa is 5.46.

The compound `Oc1ccc2ncccc2c1` had a pKa of 5.26.

The compound `CCC1CN1` (centres undefined) came in with a pKa of 5.69.

The compound `C=CCC(C)(CN(CC)CC)OC(=O)CC(C)C` (centres undefined) registered a pKa of 8.1.

Compound `CCOC(=O)c1ccc(CCN)cc1` yielded a pKa of 9.58.

As for `c1ccc(CC2=NCCC2)cc1`, the pKa amounted to 6.9.

As to `Cc1cnc(C)cn1`, the pKa is 1.95.

For the compound `O=C([O-])C#CCN1CCOCC1`, the pKa was 5.57.

Turning to `Cc1ncnc2nccnc12`, the pKa was determined as 2.92.

In the case of `Nc1ncnc2[nH]cnc12`, the pKa is 4.26.

`CCCCNc1ccnc([S-])n1` registered a pKa of 11.1.

Take `Cn1cnc2[nH]c(=O)[nH]c(=S)c21`: the pKa is 0.3.

For the compound `CC(=O)/C(CN1CCOCC1)=N\O`, the pKa came to 6.1.

As for `Cn1cc(N)cn1`, the pKa came to 5.52.

For `Clc1ccc(-c2ncc(-c3ccccc3)o2)cc1`, the pKa worked out at 0.41.

On to `NCCC[n+]1ccc2ccccc2c1`, for which the pKa is 8.97.

As for `c1cncc(-c2ccc[nH+]c2)c1`, the pKa came out at 3.

In turn, `NCC(N)=S` registered a pKa of 7.27.

The compound `Cn1c(=O)[nH]c2ncn(C)c2c1=O` gave a pKa of 0.5.

With `C=C(C)C(N)O` (centres undefined), the pKa was found to be 8.

The compound `C/N=c1/oc2c(n1C)CCCC2` registered a pKa of 10.2.

Compound `FC(F)(F)c1cc(-c2ccccc2)nnc1NCC[NH+]1CCOCC1` registered a pKa of 1.44.

In turn, `CCN(C)N(C)CC` yielded a pKa of 6.8.

The compound `Cc1cc2ncn([C@H]3O[C@@H](CO)[C@H](O)[C@@H](O)[C@@H]3O)c2cc1C` showed a pKa of 4.63.

For the compound `c1cnc2c(c1)ccc1c3c(cnc12)CCCC3`, the pKa was found to be 5.66.

`Cc1nc2c(C)ccc([N+](=O)[O-])c2c(NCCC[NH+](C)C)c1C` gave a pKa of 6.67.

For the compound `COc1ccc(OC)c2c1nc(C)n2C`, the pKa came to 6.12.

The compound `Nc1ccc(Br)cc1` came in with a pKa of 3.79.

As for `CNC`, the pKa came out at 11.

In the case of `Cc1cnnc(C)c1`, the pKa worked out at 4.11.

The compound `Cc1cc(C(c2ccc(N)cc2)c2ccc(N)cc2)ccc1[NH3+]` registered a pKa of 3.8.

Take `NCCCCCc1ccncc1`: the pKa was determined as 10.3.

`COc1ccccn1` registered a pKa of 3.34.

`NCc1ccc(Cl)cc1[N+](=O)[O-]` displayed a pKa of 8.34.

In the case of `CCCCCCCCCCCCCN`, the pKa turned out to be 10.6.

Turning to `Nc1nc[nH]n1`, the pKa worked out at 4.3.

For `CSc1ccc2ncccc2c1`, the pKa was 4.75.

Consider `Cn1ncc2ccccc21`, for which the pKa was found to be 0.51.

Regarding `Cc1ccc([N+](=O)[O-])cc1/C(=N/CCCN(C)C)c1ccccc1`, the pKa was determined as 8.8.

In turn, `Cc1ccc(N)cc1` had a pKa of 5.04.

`CCC(=O)O[C@@]1(c2ccccc2)CCN(C)C[C@H]1C` came in with a pKa of 8.66.

On to `Cc1ccc(CN2CC(O[Si](C)(C)C)C2)cc1`, for which the pKa stood at 8.24.

Consider `c1ccc2c(c1)CCN2`, for which the pKa is 5.49.

Compound `Cc1cc(C(c2ccc(N)cc2)c2ccc([NH3+])cc2)ccc1[NH3+]` showed a pKa of 2.6.

Take `NCCCCCCC#CC#CCCC(=O)[O-]`: the pKa worked out at 10.7.

The compound `Cc1ccncn1` showed a pKa of 1.99.

Turning to `N=C(c1ccccc1)c1ccc(O)cc1`, the pKa worked out at 6.45.

The compound `NC(=O)CN(CC[NH+](CC(N)=O)Cc1ccccc1O)Cc1ccccc1O` displayed a pKa of 1.89.

As for `COc1ccc(Nc2ccc(N)cc2)cc1`, the pKa stood at 5.9.

As for `COc1cc(NS(C)(=O)=O)ccc1-c1cn2cccnc2n1`, the pKa is 4.17.

The compound `CCCN(CCC)Cc1ccccc1O` yielded a pKa of 8.3.

Turning to `COc1ccc(NCCS)cc1`, the pKa came to 5.3.

`Cc1ccc(N)cc1[N+](=O)[O-]` gave a pKa of 3.

Regarding `Cc1cc(NN)nc2ccccc12`, the pKa came to 8.35.

Compound `[O-]c1ccc(Cl)cc1CN1CCCCC1` yielded a pKa of 11.8.

In turn, `C=CCC(C)(O)CN(CC)CC` (centres undefined) had a pKa of 9.71.

`[S-]c1cnc2cncnc2n1` came in with a pKa of 5.5.

In the case of `CC(=O)c1ccccn1`, the pKa is -0.46.

For `C1CC2CC1NN2`, the pKa was determined as 7.94.

Take `Nc1nccnn1`: the pKa is 4.

`CCOc1ccc2nc3cc([N+](=O)[O-])ccc3c(N)c2c1` showed a pKa of 7.5.

Take `S=c1[nH]c(SCc2ccccc2)c(-c2ccccc2)[nH]1`: the pKa was -3.31.

The compound `Cn1cnc2[nH]c(=O)[nH]c(=O)c21` showed a pKa of 0.87.

Take `CCN(CC)CCS(=O)(=O)c1ccc(OC)c(OC)c1OC`: the pKa came to 7.41.

Take `CCCCNc1ccnc2cccc([N+](=O)[O-])c12`: the pKa is 7.18.

In turn, `OC(CN1CCCC1)CN1CCCC1` returned a pKa of 9.73.

On to `COc1cccnc1C=O`, for which the pKa was found to be 3.89.

`[NH3+]c1ccc(-c2ncc(-c3ccc(Br)cc3)o2)cc1` showed a pKa of -0.05.

As to `CC[C@]12CCC[NH+]3CC[C@@]4(c5cccc(OC)c5N[C@H]4CC1)[C@@H]32`, the pKa turned out to be 2.7.

Turning to `Cc1ccc(OC(=O)CCCN(C)C)cc1`, the pKa came to 9.53.

`c1ccc(CSc2ccccn2)cc1`: the pKa is 3.23.

`C=C(C)C(=O)OCCNC(C)C` yielded a pKa of 9.13.

Take `[NH3+]CCc1c[nH]cn1`: the pKa was determined as 6.08.

`CC1CCCN(C(C)C=C(c2cccs2)c2cccs2)C1` (centres undefined) gave a pKa of 8.28.

`O=P([O-])(O)C([NH2+]Cc1ccccn1)c1ccccc1O` (centres undefined): the pKa is 3.12.

For the compound `CNCC[S-]`, the pKa was found to be 10.8.

Source of the values: the pKa sets of Baltruschat and Czodrowski (2020).
